Experimental data: US10098949B2, “Adsorption of immunopotentiators to insoluble metal salts” (GlaxoSmithKline Biologicals SA, priority 2010, dated 2018)
pEC50: −log10 of the molar value. Read-outs that look alike come from different tables or passages of the source. Values belong to the molecule of their own block, whether it stands above or below them.

How the values were obtained:
[1] = Adsorption to aluminium hydroxide (Al—H) adjuvant, supernatant by HPLC; type: physicochemical; settings: for % adsorption to Al—H: 10 mM histidine buffer, pH 6.5; for Adsorption Efficiency to aluminum hydroxide: 3 mg/mL aluminum hydroxide, 0.5 mg/mL compound, no buffer, room temperature overnight, RP-HPLC
[2] = Solubility in water and in histidine buffer; type: physicochemical; settings: pH 6.8
human TLR7 = molecular target: T1, human TLR7 (Homo sapiens, UniProt Q9NYK1); assay: HEK293 human TLR7 NF-κB luciferase reporter assay; type: cell-based; settings: HEK293 cells
T1 construct: expressed in transfected cells; host or cells: HEK293
T1 sequence (Q9NYK1 27-1049): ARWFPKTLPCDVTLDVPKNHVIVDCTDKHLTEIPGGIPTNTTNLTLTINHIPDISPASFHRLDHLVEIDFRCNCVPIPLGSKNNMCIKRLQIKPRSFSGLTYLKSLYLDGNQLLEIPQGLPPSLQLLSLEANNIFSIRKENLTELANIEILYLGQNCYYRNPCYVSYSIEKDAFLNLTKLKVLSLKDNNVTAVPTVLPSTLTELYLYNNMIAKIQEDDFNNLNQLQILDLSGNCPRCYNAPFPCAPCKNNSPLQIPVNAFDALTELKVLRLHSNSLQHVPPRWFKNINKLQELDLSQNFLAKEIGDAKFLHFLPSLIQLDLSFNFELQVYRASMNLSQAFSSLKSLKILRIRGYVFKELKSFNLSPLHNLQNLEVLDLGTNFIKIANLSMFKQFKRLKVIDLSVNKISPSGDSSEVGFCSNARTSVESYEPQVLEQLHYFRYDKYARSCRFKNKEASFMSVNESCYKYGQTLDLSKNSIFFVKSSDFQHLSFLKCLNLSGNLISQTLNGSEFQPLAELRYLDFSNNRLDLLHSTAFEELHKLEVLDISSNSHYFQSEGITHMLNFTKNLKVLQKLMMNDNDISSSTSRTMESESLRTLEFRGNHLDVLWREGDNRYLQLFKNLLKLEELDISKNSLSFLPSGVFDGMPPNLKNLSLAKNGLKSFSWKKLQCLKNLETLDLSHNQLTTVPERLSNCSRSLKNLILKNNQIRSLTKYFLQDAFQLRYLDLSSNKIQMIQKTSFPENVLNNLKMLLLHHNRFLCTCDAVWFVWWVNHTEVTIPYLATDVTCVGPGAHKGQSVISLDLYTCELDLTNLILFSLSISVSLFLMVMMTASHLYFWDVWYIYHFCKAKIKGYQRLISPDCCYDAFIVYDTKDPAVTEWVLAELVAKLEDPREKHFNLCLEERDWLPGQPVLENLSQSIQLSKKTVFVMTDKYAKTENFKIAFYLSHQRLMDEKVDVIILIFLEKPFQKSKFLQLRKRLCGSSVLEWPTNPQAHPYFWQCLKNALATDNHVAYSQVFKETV
Description: The activity of this compound is assessed in an assay using HEK293 cells which are stably transfected with human TLR7 and an NF-κB-driven luciferase reporter vector (pNifty-Luciferase). As a control assay, normal HEK293 transfected with pNifty-Luc are used. Cells are cultured in DMEM supplemented with 2 mM L-glutamine, 10% heart inactivated FBS, 1% penicillin and streptomycin, 2 μg/ml puromycin and 5 μg/ml of blasticidin. Bright-Glo™ Luciferase assay buffer and substrate are supplied by Promega. Cells are plated at 25,000 cells/well in 384-well plates in a final volume of 50 μl of media. Cells are allowed to adhere to the plates after overnight (18 hours) culture at 37° C. and 5% CO2. Serially-diluted experimental and positive control compounds are then dispensed to each well and incubated for 7 hours at 37° C. and 5% CO2. Cells stimulated with DMSO alone serve as negative controls. After the incubation, 30 μl of the pre-mix assay buffer and substrate buffer are added to each well according to manufacturer's instructions. The luminescence signal is read on a CLIPR machine with an integration time of 20 seconds per plate.

splenocytes = assay: Activity in splenocytes; type: cell-based; settings: for pEC50: Splenocyte, read-out: EC50
human PBMCs = assay: Activity in human PBMCs; type: cell-based; settings: for pEC50: PBMC, read-out: EC50
serum cytokines = settings: in vivo
[3] = Muscle levels 24 hours after intramuscular injection; type: in vivo, Balb/C mice; settings: for level of compound in muscle: 24 hours after i.m. injection
[4] = tested on: serogroup B meningococcus; type: in vivo
[5] = Model of in vivo desorption from Al—H; type: in vitro ADME; settings: 37° C., after 5 hours
[6] = Association with Al—H particles by confocal microscopy and flow cytometry; type: physicochemical; settings: confocal microscopy (compound 1) or flow cytometry (compounds 2, O)
[7] = 5CVMB, CD-1 mice, days 0 & 14, (b) the agonist compound
[8] = SIF (simulated interstitial fluid)

SMILES: CCCCCNc1nc(N)nc(C)c1Cc1ccc(OCCOCCC(F)(F)P(=O)(O)O)cc1OC [Compound 71, (3-(2-(4-((2-amino-4-methyl-6-(pentylamino)pyrimidin-5-yl)methyl)-3-methoxyphenoxy)ethoxy)-1,1-difluoropropyl)phosphonic Acid]
% adsorption to Al—H [1]: 85%
solubility in histidine buffer [2]: soluble
activity compared to resiquimod (set to 100%) (human TLR7): 53%
activity compared to resiquimod (set to 100%) (splenocytes): 239%
pEC50 (splenocytes): 4.98
activity compared to resiquimod (set to 100%) (human PBMCs): 50%
pEC50 (human PBMCs): 5.02
systemic cytokines, effect of adsorption to Al—H (serum cytokines): generally reduced or unaffected
level of compound in muscle ([3]; +Al—H): readily detected
level of compound in muscle ([3]; without Al—H (free form)): undetectable
SBA titer at day 28 [4, 7]: 65
SBA titer at day 28 ([4]; in vivo): 1653

SMILES: Cc1ccc2c(c1)nc(N)c1ncc(CCc3ccc(OP(=O)(O)O)cc3C)cc12 [Compound 102]
Adsorption Efficiency to aluminum hydroxide [1]: 85.1%
Adsorption Efficiency to aluminum hydroxide ([1]; listed as compound 102): > 80%

SMILES: CCOCc1nc2c(N)nc3ccccc3c2n1CCOCCP(=O)(O)O [Compound 7]
solubility in histidine buffer [2]: insoluble
activity compared to resiquimod (set to 100%) (human TLR7): 55%
EC50 (splenocytes): inactive
EC50 (human PBMCs): inactive

SMILES: Cc1cc(OCCOCCOCCC(F)(F)P(=O)(O)O)ccc1CCc1cnc2c(N)nc3cc(CCC(=O)O)ccc3c2c1 [Compound 4]
compound in supernatant after mixing with aluminium hydroxide (HPLC) [1]: neither compound is observed in the supernatant
% adsorption to Al—H [1]: 96.0%
proportion desorbed from Al—H ([5]; His buff): 4%
proportion desorbed from Al—H ([5]; Plasma/His buff): 81%
proportion desorbed from Al—H [5, 8]: 100%

SMILES: CCOCc1nc2c(N)nc3ccccc3c2n1CCOCCOCCOCCP(=O)(O)O [Compound 68, (2-(2-(2-(2-(4-amino-2-(ethoxymethyl)-1H-imidazo[4,5-c]quinolin-1-yl)ethoxy)ethoxy)ethoxy)ethyl)phosphonic Acid]
% adsorption to Al—H [1]: 94%
solubility in histidine buffer [2]: soluble
activity compared to resiquimod (set to 100%) (human TLR7): 75%
EC50 (splenocytes): inactive
EC50 (human PBMCs): inactive
systemic cytokines, effect of adsorption to Al—H (serum cytokines): generally reduced or unaffected
level of compound in muscle ([3]; +Al—H): readily detected
level of compound in muscle ([3]; without Al—H (free form)): undetectable
SBA titer at day 28 ([4]; in vivo): 404

SMILES: COCCOc1cc2c(nc(O)n2Cc2ccc(CP(=O)(O)O)cc2)c(N)n1 [Compound 67, (4-((4-amino-6-(2-methoxyethoxy)-2-oxo-2,3-dihydro-1H-imidazo[4,5-c]pyridin-1-yl)methyl)benzyl)phosphonic Acid]
% adsorption to Al—H [1]: 82%
solubility in histidine buffer [2]: soluble
activity compared to resiquimod (set to 100%) (human TLR7): 103%
activity compared to resiquimod (set to 100%) (splenocytes): 142%
pEC50 (splenocytes): 5.03
activity compared to resiquimod (set to 100%) (human PBMCs): 59%
pEC50 (human PBMCs): 6.10
systemic cytokines, effect of adsorption to Al—H (serum cytokines): generally reduced or unaffected
level of compound in muscle ([3]; +Al—H): readily detected
level of compound in muscle ([3]; without Al—H (free form)): undetectable
SBA titer at day 28 [4, 7]: 64
SBA titer at day 28 ([4]; in vivo): 949

SMILES: COCCOc1nc(N)c2nc(O)n(Cc3ccc(CP(=O)(O)O)cc3)c2n1 [Compound 6, (4-((6-amino-2-(2-methoxyethoxy)-8-oxo-7H-purin-9(8H)-yl)methyl)benzyl)phosphonic Acid]
solubility in histidine buffer [2]: soluble
activity compared to resiquimod (set to 100%) (human TLR7): 93%
activity compared to resiquimod (set to 100%) (splenocytes): 210%
pEC50 (splenocytes): 6.01
activity compared to resiquimod (set to 100%) (human PBMCs): 35%
pEC50 (human PBMCs): 6.00
level of compound in muscle ([3]; without Al—H (free form)): undetectable
compound in inguinal lymph nodes or liver ([3]; after 24 hours): could not be detected
SBA titer at day 28 [4, 7]: 282
SBA titer at day 28 ([4]; in vivo): 4016

SMILES: CCCCCNc1nc(N)nc(C)c1Cc1ccc(CP(=O)(O)O)cc1OC [Compound 8]
solubility in histidine buffer [2]: insoluble
activity compared to resiquimod (set to 100%) (human TLR7): 81%
activity compared to resiquimod (set to 100%) (splenocytes): 184%
pEC50 (splenocytes): 5.51
activity compared to resiquimod (set to 100%) (human PBMCs): 50%
pEC50 (human PBMCs): 4.98

SMILES: CCOCc1nc2c(N)nc3ccccc3c2n1CC(C)(C)O [resiquimod, reference compound]
SBA titer at day 28 ([4]; 5CVMB, CD-1 mice, days 0 & 14, (e) resiquimod+Al—H, positive control): 1033

SMILES: CCCCCNc1nc(N)nc(C)c1Cc1ccc(CP(=O)(O)O)cc1 [Compound 69]
solubility in histidine buffer [2]: insoluble
activity compared to resiquimod (set to 100%) (human TLR7): 36%
EC50 (splenocytes): inactive
EC50 (human PBMCs): inactive

SMILES: Cc1cc(OCCCC(F)(F)P(=O)(O)O)ccc1CCc1cnc2c(N)nc3cc(CCC(=O)O)ccc3c2c1 [Compound 3]
compound in supernatant after mixing with aluminium hydroxide (HPLC) [1]: neither compound is observed in the supernatant
% adsorption to Al—H [1]: 96.2%
proportion desorbed from Al—H ([5]; His buff): 5%
proportion desorbed from Al—H ([5]; Plasma/His buff): 49%
proportion desorbed from Al—H [5, 8]: 100%

% adsorption to Al—H [1]: fails to adsorb
association with Al—H particles [6]: seen as a separate population
SMILES: Cc1ccc(CCc2cnc3c(N)nc4cc(C)ccc4c3c2)c(C)c1 [O, reference compound]
